According to patent US20160045487A1, “COMPOSITIONS AND METHODS FOR TREATING NEUROPATHY” (CHILDEREN'S MEDICAL CENTER CORPORATION, priority 2013, published 2016):

Legend:
ErbB2/ErbB3 = target: T1, ErbB2/ErbB3 (Rattus norvegicus, UniProt P06494+Q62799); experiment: NRG1-dependent activation of ErbB2/ErbB3 in L6 muscle cells; assay type: cell-based
T1 construct: endogenous in cells; host or cells: L6 muscle cells

GFRα3/RET = target: T2, GFRα3/RET (UniProt O60609+P35546); experiment: RET phosphorylation in N2A cells transfected with GFRα3; assay type: cell-based, human GFRα3 in murine N2A cells
T2 construct: N2A cells (which express RET) transfected with GFRα1 or GFRα3 expression constructs; expressed in transfected cells; host or cells: Neuro2A (N2A) cells; GFRα3 plasmid was a gift from Dr. Milbrandt; RET is endogenous
Description: Since the original report argued that XIB4035 displaces GDNF binding to GFRα1 expressing cells (FIG. 2 in Tokugawa et al., Neurochem Int 42, 81-86 (2003).), potentially ARTN, on TH-luciferase activity and Ret phosphorylation. […] In this experiment, cells were treated with GDNF or ARTN with or without XIB4035 for 10 minutes and cell lysates were either collected immediately or treatment was washed out and replaced with growth media for 30, 60, or 120 minutes. […] Therefore, we tested cells expressing only one GFRα using either N2A cells (which express RET) transfected with GFRα1 or GFRα3 expression constructs, or B(E)2-C cells, which express only GFRα2 together with RET. […] The GFRα1 or GFRα3 transfected N2A cells were then treated with XIB4035 alone, the appropriate ligand for the expressed receptor alone, or XIB4035 and ligand in combination for 10 minutes, and collected lysates immediately after treatment or 60 minutes after washout. […] Similar results were obtained with GFRα2 and NRTN using B(E)2-C cells (FIG. 8). Thus, XIB4035 is a positive modulator of signaling by GDNF family ligands and their receptors, not an agonist for GFRα1 as previously reported.
(§1) For phosphorylated Ret immunoblot experiments, cells were treated with various combinations of molecules for 10 minutes and either collected immediately or had treatment washed out and returned to control treatment media for the times indicated prior to cell collection. Lysates were collected in buffer containing: 50 mM Tris-HCL, 1% TX-100, 0.25% Deoxycholic acid, 150 mM sodium chloride, 1 mM EDTA, 0.1 mM sodium fluoride, 0.1 mM sodium pyrophosphate, 0.02 mM sodium orthovanadate, and protease inhibitors Immunoblots were blocked in 5% bovine serum albumin in tris-buffered saline+0.2% Tween 20+0.1 mM sodium fluoride, 0.1 mM sodium pyrophosphate, and 0.02 mM sodium orthovanadate and probed in blocking solution using anti-phospotyrosine (4G10) mouse monoclonal antibody (1:2000; EMD Milipore Corp., Billerica, Mass.). […]

[1] = test system: STZ-induced diabetic mice; experiment: Hargreaves thermal nociception test in STZ-induced diabetic mice; assay type: in vivo, mouse; details: topical cream for 16 weeks from hyperglycemia; tests from week 8
Text: To explore the utility of XIB4035 in a more clinically relevant model, diabetic peripheral neuropathy was selected because more than 50% of all diabetic patients develop some form of peripheral neuropathy, particularly SFN. Streptozotocin (STZ) induced diabetic model was chosen, in which a single injection of STZ kills pancreatic beta cells causing diabetes and produces SFN symptoms several weeks later. Upon becoming hyperglycemic, STZ injected mice were topically treated daily with either control or XIB4035 containing cream for 16 weeks. Thermal nociceptive tests began 8 weeks after initiation of treatment and were repeated every two weeks.
Adult female C57 Bl/6J mice were made diabetic (blood glucose >15 mmol/L) by injection of STZ (90 mg/kg i.p.) on two consecutive days, with confirmation of hyperglycemia made 7 days after STZ delivery. Paw thermal response latency of the right paw was measured every two weeks from weeks 8-16 of diabetes using a modified Hargeaves test, as described
The cream containing XIB4035 (1.5 mM, ZereneX Molecular Ltd., Manchester, UK) consisted of N-methyl-pyrrolidone (6.25%), isopropyl myristate (6.25%) and petroleum jelly (87.5%). Control cream had the same ingredients without XIB4035. Cream was applied twice daily to the hind paws of mice starting at P21 for a period of 4 weeks for prophylactic treatment of GFAP-DN-erbB4. […]

wild type mice = experiment: Electron microscopy of sciatic nerve Remak bundles, wild type mice; assay type: in vivo, mouse; details: WT mice; XIB4035 cream 4 weeks
Description: As a first test, a cream containing XIB4035 (1.5 mM) was applied directly to the hind paws of GFAP-DN-erbB4 and wild type mice twice daily for a period of 4 weeks starting prior to symptom onset (P21). Mice of both genotypes were also treated with the base cream containing no drug for control. Mice were tested for responses to a noxious thermal stimulus prior to the initiation of treatment and every 7 days for the duration of the experiment.
The cream containing XIB4035 (1.5 mM, ZereneX Molecular Ltd., Manchester, UK) consisted of N-methyl-pyrrolidone (6.25%), isopropyl myristate (6.25%) and petroleum jelly (87.5%). Control cream had the same ingredients without XIB4035. Cream was applied twice daily to the hind paws of mice starting at P21 for a period of 4 weeks for prophylactic treatment of GFAP-DN-erbB4. Diabetic mice were treated twice daily for 8 weeks after streptozotocin (STZ) injection prior to onset of hyperglycemia and for another 8 weeks during neuropathy testing. Cream treatment in therapeutic studies using GFAP-DN-erbB4 mice was performed twice daily beginning after onset of SFN at P28 and either continued for 5 weeks (chronic treatment) or 1 week (acute treatment).
Tissue was prepared as in (Lacomis, supra). Briefly, mice were perfused intracardially with 2% paraformaldehyde, 2.5% gluteraldehyde and 0.03% picric acid in 0.1 M cacodylate buffer (pH 7.2). […]

TrkA = target: T3, TrkA (Rattus norvegicus, UniProt P35739); experiment: NGF-induced TrkA phosphorylation in PC12 cells; assay type: cell-based; details: 50 ng/ml NGF with 20 μM XIB4035, 10 minutes; 15, 30 or 45 minutes after
T3 construct: endogenous in cells; host or cells: PC12 (PC-12) cells
Description: PC12 cells were treated with 50 ng/ml of NGF with or without 20 μM XIB4035 for 10 minutes. Cell lysates were either collected immediately or after cells were incubated in growth media for additional 15, 30, or 45 minutes. Cell lysates were subjected to immunoprecipitation using anti-TrkA antibodies and analysis via phospho-tyrosine Western blot. TrkA phosphorylation is not prolonged by addition of XIB4035.
as §1, with “Mass.). Secondary detection was performed in blocking solution using HRP-conjugated goat-anti-mouse antibodies (1:1000; MP Biolomedicals LLC, Solon, Ohio).” for “Mass.).”

[2] = test system: mutant and wild type mice; experiment: Observation for side effects of chronic topical treatment; assay type: in vivo, mouse; details: treated twice a day for 7 weeks
Text: Importantly, given the potential need for chronic application of XIB4035, the question of whether XIB4035 produces side effects in both mutant and wild type mice was examined.

T2 sequence (O60609 32-374 limits assumed): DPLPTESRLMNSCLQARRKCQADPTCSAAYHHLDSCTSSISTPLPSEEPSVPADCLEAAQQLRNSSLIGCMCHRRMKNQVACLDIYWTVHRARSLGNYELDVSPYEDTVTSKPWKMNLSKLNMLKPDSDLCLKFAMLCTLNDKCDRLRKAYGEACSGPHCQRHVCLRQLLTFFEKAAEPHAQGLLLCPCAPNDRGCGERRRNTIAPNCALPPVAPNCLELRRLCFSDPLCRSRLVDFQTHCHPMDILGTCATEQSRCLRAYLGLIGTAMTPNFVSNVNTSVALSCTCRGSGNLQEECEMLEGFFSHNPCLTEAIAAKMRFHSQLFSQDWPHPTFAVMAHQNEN
T2 sequence (P35546 29-1115): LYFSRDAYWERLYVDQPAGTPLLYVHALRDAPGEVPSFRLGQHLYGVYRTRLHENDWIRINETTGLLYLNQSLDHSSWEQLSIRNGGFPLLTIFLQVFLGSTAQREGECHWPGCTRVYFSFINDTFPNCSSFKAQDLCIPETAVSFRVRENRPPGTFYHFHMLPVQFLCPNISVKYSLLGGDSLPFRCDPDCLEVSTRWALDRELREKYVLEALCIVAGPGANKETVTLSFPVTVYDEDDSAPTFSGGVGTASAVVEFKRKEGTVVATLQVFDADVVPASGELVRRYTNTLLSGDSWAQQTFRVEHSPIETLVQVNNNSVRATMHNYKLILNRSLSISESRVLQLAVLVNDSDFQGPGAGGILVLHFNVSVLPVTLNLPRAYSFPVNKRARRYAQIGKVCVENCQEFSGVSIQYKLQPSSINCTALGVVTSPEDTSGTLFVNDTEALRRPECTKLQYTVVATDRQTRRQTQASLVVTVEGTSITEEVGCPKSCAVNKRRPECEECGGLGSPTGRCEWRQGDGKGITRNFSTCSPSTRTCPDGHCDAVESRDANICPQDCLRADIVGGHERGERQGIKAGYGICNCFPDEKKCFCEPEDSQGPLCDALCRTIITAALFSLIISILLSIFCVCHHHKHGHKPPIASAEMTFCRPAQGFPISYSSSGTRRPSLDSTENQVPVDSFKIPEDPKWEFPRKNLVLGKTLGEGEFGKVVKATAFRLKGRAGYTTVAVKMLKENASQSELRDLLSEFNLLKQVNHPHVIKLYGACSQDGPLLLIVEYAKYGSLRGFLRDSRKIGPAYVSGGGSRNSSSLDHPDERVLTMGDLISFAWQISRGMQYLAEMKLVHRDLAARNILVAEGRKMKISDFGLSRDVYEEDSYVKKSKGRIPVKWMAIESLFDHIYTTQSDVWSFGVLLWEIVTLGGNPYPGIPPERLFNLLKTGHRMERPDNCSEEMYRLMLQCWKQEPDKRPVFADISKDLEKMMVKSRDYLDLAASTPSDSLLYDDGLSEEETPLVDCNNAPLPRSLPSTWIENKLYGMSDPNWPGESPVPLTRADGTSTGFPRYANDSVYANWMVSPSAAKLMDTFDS
T1 sequence (P06494 23-1257): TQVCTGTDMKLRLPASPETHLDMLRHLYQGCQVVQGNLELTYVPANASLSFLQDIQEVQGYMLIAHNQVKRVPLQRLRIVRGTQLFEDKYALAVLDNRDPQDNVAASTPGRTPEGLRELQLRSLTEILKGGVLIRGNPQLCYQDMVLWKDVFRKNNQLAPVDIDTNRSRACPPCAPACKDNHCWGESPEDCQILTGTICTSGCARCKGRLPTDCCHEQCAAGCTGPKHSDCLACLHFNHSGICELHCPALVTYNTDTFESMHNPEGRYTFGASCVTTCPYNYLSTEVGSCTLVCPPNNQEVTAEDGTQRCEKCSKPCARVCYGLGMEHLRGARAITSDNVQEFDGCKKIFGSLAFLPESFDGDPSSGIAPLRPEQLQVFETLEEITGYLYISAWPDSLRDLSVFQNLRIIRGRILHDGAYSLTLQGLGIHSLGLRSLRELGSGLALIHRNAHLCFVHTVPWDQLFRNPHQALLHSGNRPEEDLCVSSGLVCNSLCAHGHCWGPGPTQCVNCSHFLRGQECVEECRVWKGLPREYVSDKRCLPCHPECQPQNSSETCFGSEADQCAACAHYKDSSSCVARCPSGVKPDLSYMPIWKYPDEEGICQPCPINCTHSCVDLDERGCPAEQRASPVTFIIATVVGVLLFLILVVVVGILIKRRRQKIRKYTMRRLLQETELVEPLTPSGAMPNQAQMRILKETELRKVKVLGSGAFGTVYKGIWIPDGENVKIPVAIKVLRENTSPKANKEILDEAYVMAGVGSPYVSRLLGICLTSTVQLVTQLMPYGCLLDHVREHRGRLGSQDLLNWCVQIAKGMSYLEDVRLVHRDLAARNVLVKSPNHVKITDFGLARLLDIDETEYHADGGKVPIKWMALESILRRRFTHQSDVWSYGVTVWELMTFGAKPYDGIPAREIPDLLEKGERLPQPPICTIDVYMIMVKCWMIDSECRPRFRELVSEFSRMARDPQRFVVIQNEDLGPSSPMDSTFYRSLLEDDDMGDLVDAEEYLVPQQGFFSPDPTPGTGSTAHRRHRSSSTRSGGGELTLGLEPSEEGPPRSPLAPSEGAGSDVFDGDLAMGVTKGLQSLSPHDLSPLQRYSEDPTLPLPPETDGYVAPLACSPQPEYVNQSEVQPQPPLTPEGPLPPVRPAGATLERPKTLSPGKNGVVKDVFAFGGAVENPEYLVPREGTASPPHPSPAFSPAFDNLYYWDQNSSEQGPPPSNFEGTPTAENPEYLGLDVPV
T1 sequence (Q62799 20-1339): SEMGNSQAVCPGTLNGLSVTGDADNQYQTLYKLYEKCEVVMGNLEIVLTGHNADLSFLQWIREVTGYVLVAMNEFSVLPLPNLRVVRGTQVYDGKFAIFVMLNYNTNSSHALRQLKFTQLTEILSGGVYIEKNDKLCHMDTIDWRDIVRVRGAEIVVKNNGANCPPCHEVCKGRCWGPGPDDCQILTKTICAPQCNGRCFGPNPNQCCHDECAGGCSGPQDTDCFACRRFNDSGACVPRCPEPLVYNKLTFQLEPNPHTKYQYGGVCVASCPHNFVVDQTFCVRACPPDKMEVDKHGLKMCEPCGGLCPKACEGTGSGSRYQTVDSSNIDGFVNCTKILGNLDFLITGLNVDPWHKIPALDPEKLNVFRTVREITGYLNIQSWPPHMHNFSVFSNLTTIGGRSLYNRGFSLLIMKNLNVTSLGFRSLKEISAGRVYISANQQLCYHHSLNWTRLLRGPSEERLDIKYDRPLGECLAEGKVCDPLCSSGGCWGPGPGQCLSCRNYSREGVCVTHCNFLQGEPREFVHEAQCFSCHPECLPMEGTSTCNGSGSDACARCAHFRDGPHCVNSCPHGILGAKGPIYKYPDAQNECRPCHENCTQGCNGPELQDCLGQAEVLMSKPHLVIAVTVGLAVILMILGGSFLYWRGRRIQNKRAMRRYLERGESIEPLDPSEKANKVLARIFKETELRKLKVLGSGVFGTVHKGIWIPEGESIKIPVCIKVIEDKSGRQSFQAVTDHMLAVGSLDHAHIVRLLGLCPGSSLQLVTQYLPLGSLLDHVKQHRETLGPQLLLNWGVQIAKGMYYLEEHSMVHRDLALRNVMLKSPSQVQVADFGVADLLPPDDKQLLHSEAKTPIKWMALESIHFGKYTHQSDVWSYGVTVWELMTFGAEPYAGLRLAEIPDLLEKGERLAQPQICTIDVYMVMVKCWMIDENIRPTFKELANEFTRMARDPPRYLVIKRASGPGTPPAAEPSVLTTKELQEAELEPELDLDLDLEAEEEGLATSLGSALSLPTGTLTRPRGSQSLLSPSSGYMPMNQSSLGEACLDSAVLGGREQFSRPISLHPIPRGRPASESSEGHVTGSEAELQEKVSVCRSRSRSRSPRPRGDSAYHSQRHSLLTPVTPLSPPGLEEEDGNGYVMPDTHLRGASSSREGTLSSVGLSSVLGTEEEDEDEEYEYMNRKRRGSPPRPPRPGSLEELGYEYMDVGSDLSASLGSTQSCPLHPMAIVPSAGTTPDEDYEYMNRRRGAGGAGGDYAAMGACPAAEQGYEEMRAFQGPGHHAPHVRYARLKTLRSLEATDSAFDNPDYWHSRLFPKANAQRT
T3 sequence (P35739 33-799): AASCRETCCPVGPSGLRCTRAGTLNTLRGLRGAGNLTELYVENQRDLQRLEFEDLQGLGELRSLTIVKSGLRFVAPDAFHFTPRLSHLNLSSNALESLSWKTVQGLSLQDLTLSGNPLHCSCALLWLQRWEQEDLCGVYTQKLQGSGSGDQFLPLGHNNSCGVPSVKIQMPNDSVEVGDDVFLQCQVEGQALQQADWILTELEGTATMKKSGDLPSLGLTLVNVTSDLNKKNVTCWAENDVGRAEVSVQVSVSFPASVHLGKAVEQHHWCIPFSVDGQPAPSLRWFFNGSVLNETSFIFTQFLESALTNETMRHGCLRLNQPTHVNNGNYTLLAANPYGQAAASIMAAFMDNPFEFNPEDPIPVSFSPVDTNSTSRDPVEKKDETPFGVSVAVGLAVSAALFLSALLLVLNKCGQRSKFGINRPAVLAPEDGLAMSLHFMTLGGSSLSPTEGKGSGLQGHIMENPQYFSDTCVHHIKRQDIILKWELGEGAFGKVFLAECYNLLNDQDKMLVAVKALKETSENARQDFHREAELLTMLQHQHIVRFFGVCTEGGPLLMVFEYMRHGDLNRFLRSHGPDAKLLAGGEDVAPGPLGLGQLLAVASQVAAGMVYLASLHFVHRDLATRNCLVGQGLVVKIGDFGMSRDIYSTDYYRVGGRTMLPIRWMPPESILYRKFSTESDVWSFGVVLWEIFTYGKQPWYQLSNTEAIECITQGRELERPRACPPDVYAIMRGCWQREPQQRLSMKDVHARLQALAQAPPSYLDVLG

Structure (SMILES): CCN(CC)CCCC(C)Nc1cc(/C=C/c2ccccc2Cl)nc2cc(Cl)ccc12 (centres unmarked) [XIB4035, N4-{7-chloro-2-[(E)-2-(2-chloro-phenyl)-vinyl]-quinolin-4-yl}-N1,N1-diethyl-pentane-1,4-diamine]
- NRG1-dependent activation of ErbB2/ErbB3 (ErbB2/ErbB3): did not influence
- induction of RET phosphorylation (GFRα3/RET; XIB4035 alone, 10 minutes): did not induce RET phosphorylation
- RET phosphorylation at the 60 min time-point compared to ligand alone (GFRα3/RET; XIB4035 and ligand co-treatment, 60 minutes after washout): clearly prolonged
- sensory function (thermal nociceptive tests) [1]: better sensory function than those exposed to the control cream
- c-fiber area (wild type mice): 1.81 ± 0.06 µm²
- c-fibers/Remak bundle (wild type mice): 8.80 ± 0.52
- NGF-induced TrkA phosphorylation (TrkA): not prolonged
- changes in appearance, food intake, skin health or other outward negative signs [2]: no changes
